In ChEMBL document CHEMBL4392873, “Transformation of Santonin to a Naproxen Analogue with Anti-Inflammatory Activity” (J Nat Prod, 2019):

Tests used:
[1] = test system: Prostaglandin G/H synthase 2; assay: Inhibition of COX2 (unknown origin) assessed as reduction in prostaglandin E2 production at 30 uM incubated for 10 mins before arachidonic acid addition and measured after 25 mins by LC-MS/MS analysis; settings: Homo sapiens
[2] = biological target: Prostaglandin G/H synthase 1 (Ovis aries) (UniProt P05979); assay: Inhibition of ovine COX1 assessed as reduction in prostaglandin E2 production at 30 uM incubated for 10 mins before arachidonic acid addition and measured after 25 mins by LC-MS/MS analysis
[3] = Selectivity index, ratio of IC50 for ovine COX1 to IC50 for COX2 (unknown origin)

inhibition [1]: 21.8%
inhibition [2]: 52.9%
Ratio IC50 [3]: 0.496
Compound: COC(=O)[C@@H](C)c1ccc2c(C)cc(O)c(C)c2c1
